# Reference: patent US12668600B2 (Kumquat Biosciences Inc., priority 2023, dated 2026)
# Experiments:
# Format in all cases: biochemical
# KRAS WT = target: T1, KRAS WT (Homo sapiens, UniProt P01116); assay: HTRF KRAS-SOS1 interaction assay, wildtype KRAS; conditions: binned ≤2 μM / >2 μM, read-out: Inhibition of KRAS WT (IC50)
# T1 construct: made in house; host or cells: E. coli, e.g. BL21 (DE3)
# Summary of the method: (§1)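 Inhibition of the KRAS–SOS1 interaction was measured by HTRF (ex 337, em 620/665 nm) after ≥~10 min incubation. Donor: anti-GST-Eu on GST-KRAS; acceptor: anti-6His-XL665 on His-hSOS1, in HEPES pH 7.4 buffer with DTT, BSA and Igepal. Compounds in duplicate at 0.01–10 μM; IC50 from emission ratio.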
# KRAS G12D = target: T2, KRAS G12D (Homo sapiens, UniProt P01116, G12D); assay: HTRF KRAS-SOS1 interaction assay, KRAS G12D; conditions: binned ≤2 μM / >2 μM, read-out: Inhibition of KRAS G12D (IC50)
# T2 construct: made in house; host or cells: E. coli, e.g. BL21 (DE3)
# T2 sequence (P01116 1-188 isoform P01116-2 G12D): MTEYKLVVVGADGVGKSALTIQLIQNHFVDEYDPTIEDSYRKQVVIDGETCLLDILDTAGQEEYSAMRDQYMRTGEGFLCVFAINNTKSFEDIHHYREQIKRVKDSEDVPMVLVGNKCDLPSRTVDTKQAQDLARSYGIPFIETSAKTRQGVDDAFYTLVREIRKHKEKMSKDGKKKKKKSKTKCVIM
# Summary of the method: as §1
# KRAS G12V = target: T3, KRAS G12V (Homo sapiens, UniProt P01116, G12V); assay: HTRF KRAS-SOS1 interaction assay, KRAS G12V; conditions: binned ≤2 μM / >2 μM, read-out: Inhibition of KRAS G12V (IC50)
# T3 construct: made in house; host or cells: E. coli, e.g. BL21 (DE3)
# T3 sequence (P01116 1-188 isoform P01116-2 G12V): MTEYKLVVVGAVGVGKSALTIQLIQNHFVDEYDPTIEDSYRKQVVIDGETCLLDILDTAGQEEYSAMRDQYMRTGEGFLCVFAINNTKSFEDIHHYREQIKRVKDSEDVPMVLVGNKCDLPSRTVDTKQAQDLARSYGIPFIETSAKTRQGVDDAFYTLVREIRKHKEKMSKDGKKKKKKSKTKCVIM
# Summary of the method: as §1
# KRAS G12S = target: T4, KRAS G12S (Homo sapiens, UniProt P01116, G12S); assay: HTRF KRAS-SOS1 interaction assay, KRAS G12S; conditions: binned ≤2 μM / >2 μM, read-out: Inhibition of KRAS G12S (IC50)
# T4 construct: made in house; host or cells: E. coli, e.g. BL21 (DE3)
# T4 sequence (P01116 1-188 isoform P01116-2 G12S): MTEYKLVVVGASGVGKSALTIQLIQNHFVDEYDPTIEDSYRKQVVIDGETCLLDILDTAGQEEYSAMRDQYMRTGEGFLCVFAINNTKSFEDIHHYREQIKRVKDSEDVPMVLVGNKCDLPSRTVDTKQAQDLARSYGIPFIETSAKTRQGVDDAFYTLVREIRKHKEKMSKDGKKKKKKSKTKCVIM
# Summary of the method: as §1
# T1 sequence (P01116 1-188 isoform P01116-2): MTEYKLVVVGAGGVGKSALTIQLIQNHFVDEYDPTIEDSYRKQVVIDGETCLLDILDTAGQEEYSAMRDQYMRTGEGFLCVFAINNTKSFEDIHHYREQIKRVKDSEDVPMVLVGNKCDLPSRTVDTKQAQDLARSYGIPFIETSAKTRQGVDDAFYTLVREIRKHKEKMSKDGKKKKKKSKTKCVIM
SMILES,IC50 (KRAS WT) [nM],IC50 (KRAS G12D) [nM],IC50 (KRAS G12V) [nM],IC50 (KRAS G12S) [nM]
"C=CCC(c1cccnc1N)N1CCOc2c(Cl)c(-c3ccc(F)c4sc(N)c(C#N)c34)c(F)c3nc(OC[C@@]45CCCN4C[C@H](F)C5)nc1c23 (mixture of isomers) [Compound 623, 2-amino-4-((9R)-4-(1-(2-aminopyridin-3-yl)but-3-en-1-yl)-8-chloro-10-fluoro-2-(((2R,7aS)-2-fluorotetrahydro-1H-pyrrolizin-7a (5H)-yl)methoxy)-5,6-dihydro-4H-[1,4]oxazepino[5,6,7-de]quinazolin-9-yl)-7-fluorobenzo[b]thiophene-3-carbonitrile]",≤ 2000,≤ 2000,≤ 2000,≤ 2000
"C#Cc1c(F)ccc2cc(O)cc(-c3nc4c5c(nc(OC[C@@H]6CCCN6C)nc5c3F)N(C(C)c3cccnc3N)CCO4)c12 (mixture of isomers) [Compound 722, 4-(10-(1-(2-aminopyridin-3-yl)ethyl)-4-fluoro-2-(((S)-1-methylpyrrolidin-2-yl)methoxy)-9,10-dihydro-8H-7-oxa-1,3,6,10-tetraazacyclohepta[de]naphthalen-5-yl)-5-ethynyl-6-fluoronaphthalen-2-ol]",≤ 2000,≤ 2000,≤ 2000,≤ 2000
"N#Cc1c(N)sc2c(F)ccc(-c3c(Cl)c4c5c(nc(OC[C@@]67CCCN6C[C@H](F)C7)nc5c3F)N([C@H](/C=C/C3CC3)c3cccnc3N)CCO4)c12 [Compound 676, 2-amino-4-(4-((R,E)-1-(2-aminopyridin-3-yl)-3-cyclopropylallyl)-8-chloro-10-fluoro-2-(((2R,7aS)-2-fluorotetrahydro-1H-pyrrolizin-7a(5H)-yl)methoxy)-5,6-dihydro-4H-[1,4]oxazepino[5,6,7-de]quinazolin-9-yl)-7-fluorobenzo[b]thiophene-3-carbonitrile]",≤ 2000,≤ 2000,≤ 2000,≤ 2000
"C[C@@H]1CN(CC2(COc3nc4c5c(c(C(F)(F)F)c(-c6ccc(F)c7sc(N)c(C#N)c67)c(F)c5n3)OCCN4[C@H](C)c3cccnc3N)CC2)C[C@H](C)O1 [Compound 710, 2-amino-4-(4-((R)-1-(2-aminopyridin-3-yl)ethyl)-2-((1-(((2S,6R)-2,6-dimethylmorpholino)methyl)cyclopropyl)methoxy)-10-fluoro-8-(trifluoromethyl)-5,6-dihydro-4H-[1,4]oxazepino[5,6,7-de]quinazolin-9-yl)-7-fluorobenzo[b]thiophene-3-carbonitrile]",≤ 2000,> 2000,≤ 2000,≤ 2000
"C[C@H](c1cncnc1N)N1CCOc2c(C(F)(F)F)c(-c3ccc(F)c4sc(N)c(C#N)c34)c(F)c3nc(OC[C@@]45CCCN4C[C@H](F)C5)nc1c23 (single isomer, unassigned) [Compound 777]",≤ 2000,≤ 2000,≤ 2000,≤ 2000
"C=C1CN2CC(=C)CC2(COc2nc3c4c(c(C(F)(F)F)c(-c5ccc(F)c6sc(N)c(C#N)c56)c(F)c4n2)OCCN3[C@H](C)c2cccnc2N)C1 (single isomer, unassigned) [Compound 775]",≤ 2000,≤ 2000,≤ 2000,≤ 2000
"C[C@H](c1nccnc1N)N1CCOc2c(C(F)(F)F)c(-c3ccc(F)c4sc(N)c(C#N)c34)c(F)c3nc(OC[C@@]45CCCN4CC(=C(F)F)C5)nc1c23 [Compound 876, 2-amino-4-(4-((R)-1-(3-aminopyrazin-2-yl)ethyl)-2-(((S)-2-(difluoromethylene)tetrahydro-1H-pyrrolizin-7a(5H)-yl)methoxy)-10-fluoro-8-(trifluoromethyl)-5,6-dihydro-4H-[1,4]oxazepino[5,6,7-de]quinazolin-9-yl)-7-fluorobenzo[b]thiophene-3-carbonitrile]",≤ 2000,≤ 2000,≤ 2000,≤ 2000
"C[C@H](c1cccnc1N)N1CCOc2c(C(F)(F)F)c(-c3ccc(F)c4sc(N)c(C#N)c34)c(F)c3nc(OCC4(CN5CCC(F)(F)CC5)CC4)nc1c23 [Compound 778, 2-amino-4-(4-((R)-1-(2-aminopyridin-3-yl)ethyl)-2-((1-((4,4-difluoropiperidin-1-yl)methyl)cyclopropyl)methoxy)-10-fluoro-8-(trifluoromethyl)-5,6-dihydro-4H-[1,4]oxazepino[5,6,7-de]quinazolin-9-yl)-7-fluorobenzo[b]thiophene-3-carbonitrile]",≤ 2000,≤ 2000,≤ 2000,≤ 2000
"C=C(F)[C@@H](c1cccnc1N)N1CCOc2c(Cl)c(-c3ccc(F)c4sc(N)c(C#N)c34)c(F)c3nc(OC[C@@]45CCCN4C[C@H](F)C5)nc1c23 [Compound 601, 2-amino-4-(4-((R)-1-(2-aminopyridin-3-yl)-2-fluoroallyl)-8-chloro-10-fluoro-2-(((2R,7aS)-2-fluorotetrahydro-1H-pyrrolizin-7a(5H)-yl)methoxy)-5,6-dihydro-4H-[1,4]oxazepino[5,6,7-de]quinazolin-9-yl)-7-fluorobenzo[b]thiophene-3-carbonitrile]",≤ 2000,≤ 2000,≤ 2000,≤ 2000
"C#Cc1c(F)ccc2cc(O)cc(-c3nc4c5c(nc(OC[C@@H]6CCCN6C)nc5c3F)N(C(C)c3cccnc3N)CCO4)c12 (single isomer, unassigned) [Compound 728]",≤ 2000,≤ 2000,≤ 2000,≤ 2000
"C[C@H](c1cccnc1N)N1CCOc2c(C(F)(F)F)c(-c3ccc(F)c4sc(N)c(C#N)c34)c(F)c3nc(OCC4(CN5CCC(F)CC5)CC4)nc1c23 [Compound 836, 2-amino-4-(4-((R)-1-(2-aminopyridin-3-yl)ethyl)-10-fluoro-2-((1-((4-fluoropiperidin-1-yl)methyl)cyclopropyl)methoxy)-8-(trifluoromethyl)-5,6-dihydro-4H-[1,4]oxazepino[5,6,7-de]quinazolin-9-yl)-7-fluorobenzo[b]thiophene-3-carbonitrile]",≤ 2000,≤ 2000,≤ 2000,≤ 2000
"C[C@H](c1cccnc1N)N1CCOc2c(Cl)c(-c3ccc(F)c4sc(N)c(C#N)c34)c(F)c3nc(OC[C@@]45CCCN4CC(=NOCC(F)(F)F)C5)nc1c23 (mixture of isomers) [Compound 917, 2-amino-4-(4-((R)-1-(2-aminopyridin-3-yl)ethyl)-8-chloro-10-fluoro-2-(((S)-2-((2,2,2-trifluoroethoxy)imino)tetrahydro-1H-pyrrolizin-7a(5H)-yl)methoxy)-5,6-dihydro-4H-[1,4]oxazepino[5,6,7-de]quinazolin-9-yl)-7-fluorobenzo[b]thiophene-3-carbonitrile]",≤ 2000,≤ 2000,≤ 2000,≤ 2000
"C[S+]([O-])CCC[C@H](c1cccnc1N)N1CCOc2c(C(F)(F)F)c(-c3ccc(F)c4sc(N)c(C#N)c34)c(F)c3nc(OC[C@@]45CCCN4C[C@H](F)C5)nc1c23 (mixture of isomers) [Compound 691, 2-amino-4-(4-((1R)-1-(2-aminopyridin-3-yl)-4-(methylsulfinyl)butyl)-10-fluoro-2-(((2R,7aS)-2-fluorotetrahydro-1H-pyrrolizin-7a(5H)-yl)methoxy)-8-(trifluoromethyl)-5,6-dihydro-4H-[1,4]oxazepino[5,6,7-de]quinazolin-9-yl)-7-fluorobenzo[b]thiophene-3-carbonitrile]",≤ 2000,≤ 2000,≤ 2000,≤ 2000
"N#Cc1c(N)sc2c(F)ccc(-c3c(C(F)(F)F)c4c5c(nc(OCC6(CN7CCC(=CF)CC7)CC6)nc5c3F)N([C@H](CCC3CCOCC3)c3cccnc3N)CCO4)c12 [Compound 905, 2-amino-4-(4-((R)-1-(2-aminopyridin-3-yl)-3-(tetrahydro-2H-pyran-4-yl)propyl)-10-fluoro-2-((1-((4-(fluoromethylene)piperidin-1-yl)methyl)cyclopropyl)methoxy)-8-(trifluoromethyl)-5,6-dihydro-4H-[1,4]oxazepino[5,6,7-de]quinazolin-9-yl)-7-fluorobenzo[b]thiophene-3-carbonitrile]",≤ 2000,≤ 2000,≤ 2000,≤ 2000
"C[C@H](c1cccnc1N)N1CCOc2c(Br)c(-c3ccc(F)c4sc(N)c(C#N)c34)c(F)c3nc(OC[C@@]45CCCN4C[C@H](F)C5)nc1c23 (single isomer, unassigned) [Compound 858]",≤ 2000,≤ 2000,≤ 2000,≤ 2000
"C[C@H](c1cccnc1N)N1CCOc2c(C(F)(F)F)c(-c3ccc(F)c4sc(N)c(C#N)c34)c(F)c3nc(OCC4(CN5CCC(=C(F)F)CC5)CC4)nc1c23 (single isomer, unassigned) [Compound 693]",≤ 2000,≤ 2000,≤ 2000,≤ 2000
